{
  "source": "paper PMC9530963",
  "about": "“A cathelicidin antimicrobial peptide from Hydrophis cyanocinctus inhibits Zika virus infection by downregulating expression of a viral entry factor” (The Journal of Biological Chemistry, 2022)",
  "key": {"ZIKV [1]": {"tested_on": "ZIKV", "assay": "Leakage of ZIKV genomic RNA (micrococcal nuclease digestion)", "design": "species or system ZIKV strain PRVABC59", "conditions": "1, 20, and 40 μM, 37 °C 2 h; micrococcal nuclease 37 °C 4 h; qPCR of PrM, E, Cap", "procedure": "Figure 8 Hc-CATH directly inactivates ZIKV particles by disrupting viral membrane.A, schematic diagram of B–G (Hc-CATH-Vero-pre). B–G, direct inactivation of ZIKV by Hc-CATH. ZIKVs (MOI = 1) were incubated with Hc-CATH (2.5 μM), AC5 (2.5 μM), LL-37 (2.5 μM), or PBS (peptide solvent) at 37 °C for 2 h, and then the ZIKV–PBS mixture and ZIKV–peptide mixture were centrifugated at 100,000g for 70 min. The pellets were washed with PBS and centrifugated at 100,000g for 70 min again. The pellets were resuspended in PBS, added to Vero cells, and incubated for 2 h. Cells were washed with PBS and cultured in fresh DMEM containing 2% FBS. […] Absorbance at 450 nm was measured after reactions were stopped using 0.5 M sulfuric acid. […] After the residual RNase was inactivated, the undigested genomic RNA in the intact ZIKV particles was extracted and quantified by testing the genes of PrM, E, and Cap proteins, respectively. ∗∗p < 0.01 and ∗∗∗p < 0.001.\nFor assay of the disruption of viral membrane by Hc-CATH, ZIKV (about 10^5 PFU) was incubated with Hc-CATH (1, 20, and 40 μM), PBS, or 1% Triton X-100 (positive control) at 37 °C for 2 h. […] The residual RNase was inactivated, the undigested genomic RNA in the intact ZIKV particles was extracted and quantified by testing viral genes encoding membrane protein (PrM), E protein, and capsid (Cap) protein, respectively ([43])."}, "ZIKV [2]": {"tested_on": "ZIKV", "assay": "ZIKV replication stage, A549 cells (peptide added after infection)", "format": "cell-based, ZIKV strain PRVABC59", "conditions": "2.5 μM after ZIKV infection, 48 h; NS3 Western blot", "procedure": "B–I, Vero (B–G), A549 (H), or U251 (I) cells were incubated with ZIKV (MOI = 1) at 37 °C for 2 h, washed with PBS, and transferred with fresh DMEM containing 2% FBS and Hc-CATH (2.5 μM), AC5 (2.5 μM), LL-37 (2.5 μM), or PBS (solvent of peptide). After culture at 37 °C for 48 h, intracellular ZIKV RNA (B), NS3 protein (C, D, H, and I), E protein level (E, the scale bar represents 50 μm), and extracellular ZIKV titer (F and G) were detected by qPCR, Western blot, immunofluorescence staining, and plaque-forming assay, respectively.\nVero cells were incubated with ZIKV (MOI = 1) at 37 °C for 2 h, washed three times with PBS, and transferred with fresh DMEM containing 2% FBS and Hc-CATH (2.5 μM), AC5 (2.5 μM), LL-37 (2.5 μM), or PBS. After culture at 37 °C for 48 h, intracellular ZIKV RNA, NS3 protein, E protein, and extracellular ZIKV titer were detected by qPCR, WB, IF, and plaque-forming assay, respectively. The effect of Hc-CATH on ZIKV replication stage was further tested in A549 and U251 cells under the same condition, and intracellular ZIKV NS3 protein was detected by WB."}, "ZIKV [3]": {"tested_on": "ZIKV", "assay": "Antiviral activity of Hc-CATH against ZIKV in vitro (peptide present during and after infection)", "format": "cell-based, ZIKV strain PRVABC59", "procedure": "Figure 1 Hc-CATH inhibits ZIKV infection in vitro. A, schematic diagram of B–H. B–H, protective effect of Hc-CATH on ZIKV infection in vitro. Vero cells were seeded in 24-well plates (5 × 10^4 cells/well). Cells were infected with ZIKV (MOI = 1), and Hc-CATH (1.25, 2.5, and 5 μM), AC5 (2.5 and 5 μM), LL-37 (2.5 μM), or same volume of PBS (peptide solvent) was added and incubated at 37 °C for 2 h. Then the cells were washed with PBS and transferred with fresh DMEM containing 2% FBS and the same concentration of peptides. After culture at 37 °C for 48 h, image of ZIKV-caused cytopathic effect was taken (B, the scale bar represents 200 μm), the percentage of ZIKV-caused cytopathic effect was quantified by CCK-8 (C), intracellular ZIKV RNA (D), NS3 protein (E, upper panel: immunoblots, lower panel: ratios analyzed by ImageJ), E protein (F, the scale bar represents 50 μm), and extracellular ZIKV titer (G and H) was tested by qPCR, Western blot, immunofluorescence staining, and plaque-forming assay, respectively. The raw data files used in the creation of G are presented in Fig. S3. ∗p < 0.05, ∗∗p < 0.01, ∗∗∗p < 0.001, ns, not significant.\nVero cells were seeded in 24-well plates (5 × 10^4 cells/well). After cells were adhered to plates, cells were incubated with ZIKV (multiplicity of infection [MOI] = 1) in the presence of noncytotoxic concentration of Hc-CATH, AC5 (positive control), LL-37 (positive control), or PBS (solvent of peptide). After incubation at 37 °C for 2 h, the culture media were removed, cells were washed with PBS and transferred with fresh culture media containing 2% FBS, and Hc-CATH, AC5, LL-37, or PBS was supplemented to each well. After incubation at 37 °C for 48 h, cytopathic effect was observed by microscopy, and Cell Counting Kit-8 was applied to determine the percent of cytopathic effect. The percent of cytopathic effect was calculated as (Asham –Atreatment)/Asham × 100 (where Asham represents the absorbance of uninfected cells, Atreatment represents the absorbance of PBS- or peptide-treated cells post ZIKV infection). The intracellular ZIKV RNA, NS3 protein, E protein, and extracellular ZIKV titer were tested by qPCR, WB, IF, and plaque-forming assay, respectively ([28])."}},
  "data": [
    {"sequence": "KFFKRLLKSVRRAVKKFRKKPRLIGLSTLL [Hc-CATH, cathelicidin antimicrobial peptide identified from the sea snake Hydrophis cyanocinctus]", "values": [
      {"measurement": "genomic RNA of peptide-treated virions (leakage)", "setting": "ZIKV [1]", "result": "digested by micrococcal nuclease"},
      {"measurement": "ZIKV infection in A549 cells, peptide added after infection", "setting": "ZIKV [2]", "result": "did not inhibit ZIKV infection"},
      {"measurement": "reduction of NS3 protein", "setting": "ZIKV [3]; 5 μM, Vero cells, ZIKV MOI = 1, 48 h, Western blot, ImageJ", "result": "~67.4", "unit": "%"},
      {"measurement": "reduction of extracellular ZIKV particles", "setting": "ZIKV [3]; 5 μM, Vero cells, ZIKV MOI = 1, 48 h, plaque-forming assay", "result": "~71.6", "unit": "%"},
      {"measurement": "reduction of intracellular ZIKV RNA", "setting": "ZIKV [3]; 5 μM, Vero cells, ZIKV MOI = 1, 48 h, qPCR", "result": "~52.7", "unit": "%"},
      {"measurement": "reduction of ZIKV-caused cytopathic effect", "setting": "ZIKV [3]; 5 μM, Vero cells, ZIKV MOI = 1, peptide during 2 h infection and 48 h culture, CCK-8", "result": "about 70.3%"},
      {"measurement": "anti-ZIKV efficacy in vitro compared with positive peptides", "setting": "ZIKV [3]; Vero cells (Fig. 1)", "result": "weaker than that of AC5 and LL-37"}
    ]}
  ]
}
